Experimental data: PubChem BioAssay AID330 (DTP/NCI, 2004)
“And” between values parts separate entries of the source, which are not always exact repeats. Identical values can stand only once. Inconclusive results and toxic doses are left out.

Tested on: P388 leukemia ip, CD2F1 mice, survival T/C
Test: NCI In Vivo Anticancer Drug Screen. Data for tumor model P388 Leukemia (intraperitoneal) in CD2F1 (CDF1) mice
Details: endpoint: median survival time, higher = longer survival
Summary of the method: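 Mice carrying the transplanted tumor received test compound or vehicle. Survival was recorded in each group, and the value is the treated-group measurement divided by that of the vehicle-treated control group.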

[1] = dose: 50.0 mg/kg/injection, schedule: Q01DX005 (ip), vehicle: saline with Tween-80
[2] = dose: 200.0 mg/kg/injection, schedule: Q01DX005 (ip), vehicle: saline with Tween-80
[3] = dose: 50.0 mg/kg/injection, schedule: Q01DX009 (ip), vehicle: Klucel (hydroxypropylcellulose) (HPC)
[4] = dose: 100.0 mg/kg/injection, schedule: Q01DX009 (ip), vehicle: Klucel (hydroxypropylcellulose) (HPC)
[5] = dose: 200.0 mg/kg/injection, schedule: Q01DX009 (ip), vehicle: Klucel (hydroxypropylcellulose) (HPC)
[6] = dose: 100.0 mg/kg/injection, schedule: Q01DX001 (ip), vehicle: Klucel (hydroxypropylcellulose) (HPC)
[7] = dose: 200.0 mg/kg/injection, schedule: Q01DX001 (ip), vehicle: Klucel (hydroxypropylcellulose) (HPC)
[8] = dose: 50.0 mg/kg/injection, schedule: Q01DX005 (ip), vehicle: Klucel (hydroxypropylcellulose) (HPC)
[9] = dose: 100.0 mg/kg/injection, schedule: Q01DX005 (ip), vehicle: Klucel (hydroxypropylcellulose) (HPC)
[10] = dose: 200.0 mg/kg/injection, schedule: Q01DX005 (ip), vehicle: Klucel (hydroxypropylcellulose) (HPC)

## O=C(OCC1OC(n2ccc(=S)[nH]c2=O)C(OC(=O)c2ccccc2)C1OC(=O)c1ccccc1)c1ccccc1 (stereo not given)
dose: 12.5 mg/kg/injection, schedule: Q01DX005 (ip), vehicle: saline with Tween-80
  T/C: 102 % of control
dose: 25.0 mg/kg/injection, schedule: Q01DX005 (ip), vehicle: saline with Tween-80
  T/C: 91 % of control
[1]
  T/C: 91 % of control and 95 % of control
[2]
  T/C: 87 % of control

## Fc1ccc(NC(=S)Nc2ccccc2C(F)(F)F)cc1
[3]
  T/C: 92 % of control
[4]
  T/C: 92 % of control
[5]
  T/C: 100 % of control

## Cc1ccc([N+](=O)[O-])cc1NC(=O)COc1ccc(Cl)cc1
dose: 100.0 mg/kg/injection, schedule: Q04DX003 (ip), vehicle: saline with Tween-80
  T/C: 100 % of control
dose: 200.0 mg/kg/injection, schedule: Q04DX003 (ip), vehicle: saline with Tween-80
  T/C: 90 % of control
dose: 400.0 mg/kg/injection, schedule: Q04DX003 (ip), vehicle: saline with Tween-80
  T/C: 90 % of control

## CCC1(C)NN=C2C(=CC=C3NNC(C)(CC)N32)n2cccc21 (stereo not given)
[1]
  T/C: 102 % of control
dose: 100.0 mg/kg/injection, schedule: Q01DX005 (ip), vehicle: saline with Tween-80
  T/C: 110 % of control
[2]
  T/C: 119 % of control

## NC(=S)c1ccc(N=Cc2ccco2)cc1
[6]
  T/C: 102 % of control
[7]
  T/C: 104 % of control
dose: 400.0 mg/kg/injection, schedule: Q01DX001 (ip), vehicle: Klucel (hydroxypropylcellulose) (HPC)
  T/C: 105 % of control

## CC1(C)CC2C=C(C=O)C3(C=O)CC3(C)C2C1 (stereo not given)
dose: 0.78 mg/kg/injection, schedule: Q01DX009 (ip), vehicle: Klucel (hydroxypropylcellulose) (HPC)
  T/C: 96 % of control
dose: 1.56 mg/kg/injection, schedule: Q01DX009 (ip), vehicle: Klucel (hydroxypropylcellulose) (HPC)
  T/C: 112 % of control
dose: 3.12 mg/kg/injection, schedule: Q01DX009 (ip), vehicle: Klucel (hydroxypropylcellulose) (HPC)
  T/C: 111 % of control
dose: 6.25 mg/kg/injection, schedule: Q01DX009 (ip), vehicle: Klucel (hydroxypropylcellulose) (HPC)
  T/C: 111 % of control

## O=C(Nc1ccc(-c2ccc(NC(=O)C34CC5CC(CC(C5)C3)C4)cc2)cc1)C12CC3CC(CC(C3)C1)C2
dose: 25.0 mg/kg/injection, schedule: Q01DX005 (ip), vehicle: Klucel (hydroxypropylcellulose) (HPC)
  T/C: 98 % of control and 100 % of control
[8]
  T/C: 101 % of control
[9]
  T/C: 89 % of control and 92 % of control
[10]
  T/C: 97 % of control

## Cc1nc2n(c1C(N)=O)CCS2
dose: 50.0 mg/kg/injection, schedule: Q01DX001 (ip), vehicle: Klucel (hydroxypropylcellulose) (HPC)
  T/C: 101 % of control
dose: 60.0 mg/kg/injection, schedule: Q01DX005 (ip), vehicle: Klucel (hydroxypropylcellulose) (HPC)
  T/C: 96 % of control
[6]
  T/C: 106 % of control
dose: 100.0 mg/kg/injection, schedule: Q04DX002 (ip), vehicle: Klucel (hydroxypropylcellulose) (HPC)
  T/C: 102 % of control
dose: 120.0 mg/kg/injection, schedule: Q01DX005 (ip), vehicle: Klucel (hydroxypropylcellulose) (HPC)
  T/C: 98 % of control
[7]
  T/C: 99 % of control
dose: 200.0 mg/kg/injection, schedule: Q04DX002 (ip), vehicle: Klucel (hydroxypropylcellulose) (HPC)
  T/C: 104 % of control
dose: 240.0 mg/kg/injection, schedule: Q01DX005 (ip), vehicle: Klucel (hydroxypropylcellulose) (HPC)
  T/C: 94 % of control

## N#CC#Cc1cccc(C#CC#N)c1
dose: 6.25 mg/kg/injection, schedule: Q01DX001 (ip), vehicle: saline with Tween-80
  T/C: 110 % of control
dose: 12.5 mg/kg/injection, schedule: Q01DX001 (ip), vehicle: saline with Tween-80
  T/C: 100 % of control

## CCSC(=S)NC#N
[3]
  T/C: 109 % of control
[4]
  T/C: 93 % of control
[5]
  T/C: 88 % of control

## COc1cc(N(CCCl)CCCl)ccc1NC(=O)c1ccccc1
dose: 6.25 mg/kg/injection, schedule: Q01DX009 (ip), vehicle: saline
  T/C: 150 % of control
dose: 6.25 mg/kg/injection, schedule: Q04DX003 (ip), vehicle: saline with Tween-80
  T/C: 109 % of control
dose: 12.5 mg/kg/injection, schedule: Q01DX009 (ip), vehicle: saline
  T/C: 168 % of control
dose: 12.5 mg/kg/injection, schedule: Q04DX003 (ip), vehicle: saline with Tween-80
  T/C: 118 % of control
dose: 16.5 mg/kg/injection, schedule: Q04DX003 (ip), vehicle: saline sonified
  T/C: 113 % of control
dose: 25.0 mg/kg/injection, schedule: Q01DX009 (ip), vehicle: saline
  T/C: 100 % of control
dose: 37.5 mg/kg/injection, schedule: Q04DX003 (ip), vehicle: saline sonified
  T/C: 181 % of control

## O=C(NCCCCCCNC(=O)c1ccccc1)c1ccccc1
[8]
  T/C: 100 % of control and 90 % of control
[9]
  T/C: 107 % of control and 86 % of control
[10]
  T/C: 89 % of control and 90 % of control

## CCCCNCC(O)c1cc2c(Cl)cc(Cl)cc2c2cc(C(F)(F)F)ccc12 (stereo not given)
dose: 6.25 mg/kg/injection, schedule: Q01DX009 (ip), vehicle: saline with Tween-80
  T/C: 98 % of control
dose: 12.5 mg/kg/injection, schedule: Q01DX009 (ip), vehicle: saline with Tween-80
  T/C: 106 % of control
dose: 25.0 mg/kg/injection, schedule: Q01DX009 (ip), vehicle: saline with Tween-80
  T/C: 102 % of control

## OC1(c2ccccc2)c2ccc(Br)cc2-c2cc(Br)ccc21
dose: 100.0 mg/kg/injection, schedule: Q01DX009 (ip), vehicle: saline with Tween-80
  T/C: 101 % of control
dose: 200.0 mg/kg/injection, schedule: Q01DX009 (ip), vehicle: saline with Tween-80
  T/C: 104 % of control
dose: 400.0 mg/kg/injection, schedule: Q01DX009 (ip), vehicle: saline with Tween-80
  T/C: 100 % of control

## COc1cc(C2CC(=O)N(c3ccc(C)cc3)C(=O)C2)cc(OC)c1OC
dose: 25.0 mg/kg/injection, schedule: Q01DX005 (ip), vehicle: Klucel + Tween-80
  T/C: 98 % of control
dose: 50.0 mg/kg/injection, schedule: Q01DX005 (ip), vehicle: Klucel + Tween-80
  T/C: 100 % of control and 105 % of control and 122 % of control
dose: 50.0 mg/kg/injection, schedule: Q01DX009 (ip), vehicle: Klucel + Tween-80
  T/C: 108 % of control
dose: 100.0 mg/kg/injection, schedule: Q01DX005 (ip), vehicle: Klucel + Tween-80
  T/C: 106 % of control and 110 % of control (2×)
dose: 114.0 mg/kg/injection, schedule: Q01DX009 (ip), vehicle: Klucel + Tween-80
  T/C: 117 % of control
dose: 175.0 mg/kg/injection, schedule: Q01DX009 (ip), vehicle: Klucel + Tween-80
  T/C: 122 % of control
dose: 200.0 mg/kg/injection, schedule: Q01DX005 (ip), vehicle: Klucel + Tween-80
  T/C: 110 % of control and 114 % of control and 122 % of control
dose: 264.0 mg/kg/injection, schedule: Q01DX009 (ip), vehicle: Klucel + Tween-80
  T/C: 93 % of control
dose: 400.0 mg/kg/injection, schedule: Q01DX009 (ip), vehicle: Klucel + Tween-80
  T/C: 92 % of control

## CCOC(=O)Nc1cc(Cl)c2nnn(C(=O)OCC)c2n1
dose: 6.25 mg/kg/injection, schedule: Q01DX009 (ip), vehicle: other
  T/C: 105 % of control
dose: 11.0 mg/kg/injection, schedule: Q01DX009 (ip), vehicle: other
  T/C: 103 % of control
dose: 12.5 mg/kg/injection, schedule: Q01DX009 (ip), vehicle: other
  T/C: 115 % of control
dose: 16.5 mg/kg/injection, schedule: Q01DX009 (ip), vehicle: other
  T/C: 106 % of control
dose: 25.0 mg/kg/injection, schedule: Q01DX009 (ip), vehicle: other
  T/C: 106 % of control
dose: 37.5 mg/kg/injection, schedule: Q01DX009 (ip), vehicle: other
  T/C: 112 % of control
dose: 50.0 mg/kg/injection, schedule: Q01DX009 (ip), vehicle: other
  T/C: 122 % of control
dose: 100.0 mg/kg/injection, schedule: Q01DX009 (ip), vehicle: other
  T/C: 115 % of control

## Nc1cccc2c1C(=O)c1ccc(C(=O)O)cc1C2=O
[8]
  T/C: 101 % of control
[9]
  T/C: 104 % of control

## CCSCC1C(=O)C23C(O)C1CCC2C12COC3(O)C(O)C1C(C)(C)CCC2O (stereo not given)
dose: 22.5 mg/kg/injection, schedule: Q01DX009 (ip), vehicle: saline with Tween-80
  T/C: 108 % of control
dose: 45.0 mg/kg/injection, schedule: Q01DX009 (ip), vehicle: saline with Tween-80
  T/C: 112 % of control
dose: 90.0 mg/kg/injection, schedule: Q01DX009 (ip), vehicle: saline with Tween-80
  T/C: 94 % of control
